ChEMBL document CHEMBL3243923, “Linked Aryl Aryloxypropanolamines as a new class of lipid catabolis agents” (J Med Chem, 1978)
Active and inactive are the calls of the source. No cut-off for these calls is given here.

How the values were obtained:
[1] = test system: Mus musculus; assay: Antiobesity activity in mouse assessed as reduction in utero fat at 0.04% administered every day through diet for 10 days measured after day 10 relative to control; format: functional
[2] = test system: Mus musculus; assay: Antiobesity activity in mouse assessed as reduction in utero fat administered every day through diet for 10 days measured after day 10; format: functional; details: 240 h
[3] = (§1) Chronic toxicity in po dosed mouse assessed as mortality administered as qd for 21 days; format: organism-based; details: in vivo, read-out: MNTD
[4] = Therapeutic index, ratio of MNTD for chronic toxicity in po dosed mouse to ED25 for antiobesity activity in mouse assessed as reduction in utero fat; format: organism-based; details: in vivo, read-out: TI
[5] = test system: Mus musculus; assay: Toxicity in mouse assessed as liver hypertrophy at 1000 mg/kg, po administered for 21 days; format: organism-based; set-up: dose 1000 mg/kg, route oral; details: in vivo, 504 h
[6] = test system: Mus musculus; assay: Antiobesity activity in mouse assessed as reduction in utero fat at 0.02% administered every day through diet for 10 days measured after day 10 relative to control; format: functional; set-up: scale not given: the % may be the effect or the level left
[7] = test system: Rattus norvegicus; assay: Antiobesity activity in rat assessed as reduction in food intake at 100 mg/kg, po qd administered for 5 days measured every day for 5 days relative to control; format: functional; set-up: scale not given: the % may be the effect or the level left
[8] = test system: Rattus norvegicus; assay: Antiobesity activity in rat assessed as reduction in body weight at 100 mg/kg, po qd administered for 5 days measured on day 6 relative to control; format: functional; set-up: scale not given: the % may be the effect or the level left
[9] = test system: Rattus norvegicus; assay: Antiobesity activity in rat assessed as reduction in utero fat at 100 mg/kg, po qd administered for 5 days measured on day 6 relative to control; format: functional; set-up: scale not given: the % may be the effect or the level left
[10] = test system: Rattus norvegicus; assay: Toxicity in rat assessed as increase in adrenal weight at 100 mg/kg, po qd administered for 5 days measured on day 6 relative to control; format: organism-based; set-up: dose 100 mg/kg, route oral; details: in vivo, 120 h
[11] = test system: Rattus norvegicus; assay: Toxicity in rat assessed as increase in liver weight at 100 mg/kg, po qd administered for 5 days measured on day 6 relative to control; format: organism-based; set-up: dose 100 mg/kg, route oral; details: in vivo, 120 h
[12] = test system: Mus musculus; assay: Antiobesity activity in mouse assessed as reduction in utero fat at 0.01% administered every day through diet for 10 days measured after day 10 relative to control; format: functional; set-up: scale not given: the % may be the effect or the level left
[13] = test system: Mus musculus; assay: as §1; format: organism-based; details: in vivo, 504 h

In the case of `CCCCCCNCC(O)COc1c(C(C)(C)C)cc(/C=C/c2ccccc2)cc1C(C)(C)C` (stereo not drawn), the Activity [1] is reported as “inactive”.

`CCCCN(CCCC)CCCNCC(O)COc1c(C(C)(C)C)cc(/C=C/c2ccccc2)cc1C(C)(C)C.O=C(O)/C=C\C(=O)O` (stereo not drawn) showed an Activity [1] of 25%.

For `CC(C)NCC(O)COc1c(C(C)(C)C)cc(/C=C/c2ccc(Cl)c(Cl)c2)cc1C(C)(C)C` (stereo not drawn), the Activity [1] was “inactive”.

In the case of `CC(C)NCC(O)COc1c(C(C)(C)C)cc(/C=C/c2ccc3ccccc3c2)cc1C(C)(C)C` (stereo not drawn), the Activity [1] is reported as “inactive”.

`CC(C)NCC(O)COc1c(C(C)(C)C)cc(/C=C/c2cccc(Cl)c2)cc1C(C)(C)C` (stereo not drawn) showed an Activity [1] of 21%, an ED25 [2] of 72 mg/kg and an MTD at 504 h [3] of 100 mg/kg. The selectivity ratio [4] was 1.4 and the Activity [5] was “Non-toxic”.

Work on `Cc1cc(/C=C/c2ccccc2)cc(C)c1OCC(O)CNC(C)C` (stereo not drawn) yielded an Activity [1] of 31%.

`CCC(C)NCC(O)COc1c(C(C)(C)C)cc(/C=C/c2ccccc2)cc1C(C)(C)C` (stereo not drawn) gave an Activity [1] of 23%.

In the case of `CC(C)NCC(O)COc1ccc(S(=O)(=O)c2ccc(Cl)cc2)cc1` (stereo not drawn), the Activity [1] is reported as “inactive”.

In the case of `CC(C)(C)c1cc(/C=C/c2ccccc2)cc(C(C)(C)C)c1OCC(O)CNC1CC1` (stereo not drawn), the Activity [1] is reported as “inactive”.

With `CC(C)NCC(O)COc1ccc(-c2ccccc2)cc1` (stereo not drawn) the Activity [1] was 24%.

With `CC(C)(C)c1cc(/C=C/c2ccccc2)cc(C(C)(C)C)c1OCC(O)CNCCNC(=O)Nc1ccccc1` (stereo not drawn) the Activity [1] was “inactive”.

For `Cc1ccc(/C=C/c2cc(C(C)(C)C)c(OCC(O)CNC(C)C)c(C(C)(C)C)c2)cc1C` (stereo not drawn), the Activity [1] was “inactive”.

In the case of `CC(C)NCC(O)COc1c(C(C)(C)C)cc(/C=C/c2ccc(C(C)(C)C)cc2)cc1C(C)(C)C` (stereo not drawn), the Activity [1] is reported as “inactive”.

Compound `CCCCNCC(O)COc1c(C(C)(C)C)cc(/C=C/c2ccccc2)cc1C(C)(C)C` (stereo not drawn) has an Activity [1] of 25%.

With `CC(C)(C)c1cc(/C=C/c2ccccc2)cc(C(C)(C)C)c1OCC(O)CNC1CCCCC1` (stereo not drawn) the Activity [1] was 24%.

`CCc1cc(/C=C/c2ccccc2)cc(CC)c1OCC(O)CNC(C)C` (stereo not drawn) showed an Activity [6] of 20%, an ED25 [2] of 45 mg/kg and an MTD at 504 h [3] of 75 mg/kg. The selectivity ratio [4] was 1.7 and the Activity [5] was “Non-toxic”.

`COc1ccc(/C=C/c2cc(C(C)(C)C)c(OCC(O)CNC(C)C)c(C(C)(C)C)c2)cc1` (stereo not drawn) gave an Activity [6] of 26%, an ED25 [2] of 20 mg/kg and an MTD at 504 h [3] of 25 mg/kg. For the same compound, the selectivity ratio [4] was 1.25 and the Activity [5] was “Non-toxic”.

With `COc1ccc(/C=C/c2cc(C(C)(C)C)c(OCC(O)CNC(C)(C)C)c(C(C)(C)C)c2)cc1Br` (stereo not drawn) the Activity [1] was “inactive”.

For `CC(C)NCC(O)COc1c(C(C)(C)C)cc(/C=C/c2ccccc2)cc1C(C)(C)C` (single isomer, unassigned; (+)), the Activity [1] was “inactive”.

Compound `CC(C)NCC(O)COc1c(C(C)(C)C)cc(-c2ccc(Cl)cc2)cc1C(C)(C)C` (stereo not drawn) has an Activity [1] of 36%, an ED25 [2] of 30 mg/kg and an MTD at 504 h [3] of 100 mg/kg. The selectivity ratio [4] was 3.6 and the Activity [5] was “Non-toxic”.

`CC(C)NCC(O)COc1c(C(C)(C)C)cc(/C=C/c2ccc([N+](=O)[O-])cc2)cc1C(C)(C)C` (stereo not drawn) gave an Activity [1] of 45%.

For `CC(C)NCC(O)COc1c(C(C)(C)C)cc(-c2ccccc2)cc1C(C)(C)C.Cl` (stereo not drawn), the Activity [1] was 28%, the ED25 [2] was 20 mg/kg and the MTD at 504 h [3] was 100 mg/kg. For the same compound, the selectivity ratio [4] was 5, the Activity [5] was “Toxic” and the Activity [7] was 51%. It also gave an Activity [8] of 4%, an Activity [9] of 28% and an Activity [10] of 16%. It also gave an Activity [11] of 21%.

For `CC(C)NCC(O)COc1c(C(C)(C)C)cc(/C=C/c2ccccc2)cc1C(C)(C)C` (stereo not drawn), the Activity [6] was “inactive”.

Compound `CC(C)NCC(O)COc1c(C(C)(C)C)cc(/C=C/c2ccc(O)cc2)cc1C(C)(C)C.O=C(O)/C=C\C(=O)O` (stereo not drawn) has an Activity [6] of 20%.

In the case of `CC(C)NCC(O)COc1c(C(C)(C)C)cc(CCc2ccccc2)cc1C(C)(C)C` (stereo not drawn), the Activity [1] is reported as “inactive”.

In the case of `COc1ccc(/C=C/c2cc(C(C)(C)C)c(OCC(O)CNC(C)C)c(C(C)(C)C)c2)cc1Br` (stereo not drawn), the Activity [1] is reported as “inactive”.

With `Cc1ccc(/C=C/c2cc(C(C)(C)C)c(OCC(O)CNC(C)C)c(C(C)(C)C)c2)cc1` (stereo not drawn) the Activity [1] was “inactive”.

For `CC(C)NCC(O)COc1ccc(-c2cccs2)cc1` (stereo not drawn), the Activity [12] was 34% and the Activity [13] was “Toxic”.

With `Cc1cc(/C=C/c2ccccc2)cc(C(C)(C)C)c1OCC(O)CNC(C)C` (stereo not drawn) the Activity [1] was “inactive”.

With `CC(C)NCC(O)COc1c(C(C)(C)C)cc(/C=C/c2cccc3ccccc23)cc1C(C)(C)C` (stereo not drawn) the Activity [1] was “inactive”.

In the case of `CC(C)NCC(O)COc1c(C(C)(C)C)cc([S+]([O-])c2ccccc2)cc1C(C)(C)C` (stereo not drawn), the Activity [1] is reported as “inactive”.

In the case of `CC(C)NCC(O)COc1c(C(C)(C)C)cc(S(=O)(=O)c2ccccc2)cc1C(C)(C)C` (stereo not drawn), the Activity [1] is reported as “inactive”.

For `CN(C)CCNCC(O)COc1c(C(C)(C)C)cc(/C=C/c2ccccc2)cc1C(C)(C)C` (stereo not drawn), the Activity [1] was “inactive”.

Work on `CC(C)NCC(O)COc1c(C(C)(C)C)cc([S+]([O-])c2ccc(Cl)cc2)cc1C(C)(C)C.O=C(O)/C=C\C(=O)O` (stereo not drawn) yielded an Activity [1] of 23%, an ED25 [2] of 45 mg/kg and an MTD at 504 h [3] of 75 mg/kg. The Activity [5] was “Non-toxic”.
